Test results from patent US20190105367A1, “ANTIMICROBIAL 4-OXOQUINOLIZINES” (Emergent Product Development Gaithersburg Inc., priority 2011, published 2019).
In brackets after ≈: the same amount, converted by molar mass. Read-outs that look alike come from different tables or passages of the source.

What was measured:
A. baumannii ATCC 19606 [1] = assay: Preliminary MBC without and with sub-inhibitory polymyxin B (Example 4); assay type: cell-based, Acinetobacter baumannii; conditions: Acinetobacter baumannii
A. baumannii A390 [2] = assay: as above; assay type: cell-based, Acinetobacter baumannii; conditions: Acinetobacter baumannii, A390, A. baumannii A390, +0.06 μg/ml PB, 2nd experiment, read-out: MBC
Summary of the method: (§1)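 Plates were incubated for 18-20 hours at 37° C. MBC was taken as the lowest concentration giving colony growth ca. 90% below the positive control, typically where only single colonies or none appeared.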

A. baumannii A14 [3] = assay: as above; assay type: cell-based, Acinetobacter baumannii; conditions: 2nd experiment
Summary of the method: as §1

A. baumannii A473 [4] = assay: as above; assay type: cell-based, Acinetobacter baumannii; conditions: Acinetobacter baumannii, A473, A. baumannii A473, +0.06 μg/ml PB, 2nd experiment, read-out: MBC
Summary of the method: as §1

A. baumannii NCTC 13301 [5] = assay: as above; assay type: cell-based, Acinetobacter baumannii; conditions: Acinetobacter baumannii
Summary of the method: as §1

A. baumannii A387 [6] = assay: MIC without and with sub-inhibitory polymyxin B (Example 4); assay type: cell-based, Acinetobacter baumannii; conditions: for MIC without PB/MIC + PB: A. baumannii A387; for MIC: Acinetobacter baumannii
A. baumannii A401 [7] = assay: as above; assay type: cell-based, Acinetobacter baumannii
A. baumannii A472 [8] = assay: as above; assay type: cell-based, Acinetobacter baumannii; conditions: for MIC: Acinetobacter baumannii
A. baumannii J2 = assay: as above; assay type: cell-based, Acinetobacter baumannii; conditions: for MIC without PB/MIC + PB: A. baumannii J2; for MIC: Acinetobacter baumannii
A. baumannii NCTC 13301 [9] = assay: as above; assay type: cell-based, Acinetobacter baumannii; conditions: +[…] PB, 2nd experiment
A. baumannii A387 [10] = assay: Preliminary MBC without and with sub-inhibitory polymyxin B (Example 4); assay type: cell-based, Acinetobacter baumannii; conditions: Acinetobacter baumannii
[11] = system: Acinetobacter sp. (H064200250); assay: MIC without and with sub-inhibitory polymyxin B (Example 4); assay type: cell-based; conditions: for MIC: Acinetobacter
A. baumannii A472 [12] = assay: Preliminary MBC without and with sub-inhibitory polymyxin B (Example 4); assay type: cell-based, Acinetobacter baumannii; conditions: Acinetobacter baumannii, preliminary MBC
A. baumannii A489 [13] = assay: as above; assay type: cell-based, Acinetobacter baumannii; conditions: Acinetobacter baumannii, preliminary MBC
A. baumannii NCTC 13301 [14] = assay: MIC without and with sub-inhibitory polymyxin B (Example 4); assay type: cell-based, Acinetobacter baumannii
A. baumannii A390 [15] = assay: as above; assay type: cell-based, Acinetobacter baumannii; conditions: +0.06 μg/ml PB, 2nd experiment
A. baumannii ATCC 19606 [16] = assay: as above; assay type: cell-based, Acinetobacter baumannii; conditions: for MIC without PB/MIC + PB: A. baumannii ATCC 19606; for MIC: Acinetobacter baumannii
A. baumannii A401 [17] = assay: Preliminary MBC without and with sub-inhibitory polymyxin B (Example 4); assay type: cell-based, Acinetobacter baumannii; conditions: Acinetobacter baumannii
A. baumannii A14 [18] = assay: MIC without and with sub-inhibitory polymyxin B (Example 4); assay type: cell-based, Acinetobacter baumannii; conditions: 2nd experiment
A. baumannii A473 [19] = assay: as above; assay type: cell-based, Acinetobacter baumannii; conditions: +0.06 μg/ml PB, 2nd experiment
[20] = system: strains of A. baumannii and one strain of Acinetobacter sp.; assay: MIC with sub-inhibitory concentrations (0.25x MIC) of polymyxin B, panel of Acinetobacter strains (Example 4); assay type: cell-based
A. baumannii A489 [21] = assay: MIC without and with sub-inhibitory polymyxin B (Example 4); assay type: cell-based, Acinetobacter baumannii; conditions: for MIC without PB/MIC + PB: A. baumannii A489; for MIC: Acinetobacter baumannii
A. baumannii A329 [22] = assay: as above; assay type: cell-based, Acinetobacter baumannii; conditions: +0.06 μg/ml PB, 2nd experiment
A. baumannii A329 [23] = assay: Preliminary MBC without and with sub-inhibitory polymyxin B (Example 4); assay type: cell-based, Acinetobacter baumannii; conditions: Acinetobacter baumannii, A329, A. baumannii A329, +0.06 μg/ml PB, 2nd experiment, read-out: MBC
[24] = A. baumannii A14, +0.06 μg/ml PB
[25] = ratio, PB 0.06 μg/ml, 1st experiment

## Cc1c(-c2ccc(N)cc2)c(F)cn2c(=O)c(C(=O)O)cc(C3CC3)c12 [Compound 7, 8-(4-amino-phenyl)-1-cyclopropyl-7-fluoro-9-methyl-4-oxo-quinolizine-3-carboxylic acid]
A. baumannii ATCC 19606 [1]; ATCC19606, A. baumannii ATCC 19606, +0.06 μg/ml PB, 2nd experiment, read-out: MBC
  MBC: ≤ 0.03 mg/L
A. baumannii ATCC 19606 [1]; ATCC19606, read-out: MBC +0.06 μg/ml PB, A. baumannii ATCC 19606, +0.06 μg/ml polymyxin B, 1st experiment
  MBC: ≤ 0.03 mg/L
A. baumannii A390 [2]
  MBC: 0.125 mg/L (≈ 0.355 µM)
A. baumannii A14 [3]; [24]
  MBC: 2 mg/L (≈ 5.68 µM)
A. baumannii A14 [3]; Acinetobacter baumannii, A14, A. baumannii A14, without PB, read-out: MBC
  MBC: 16 mg/L (≈ 45.4 µM)
A. baumannii A473 [4]
  MBC: 0.06 mg/L (≈ 0.17 µM)
A. baumannii NCTC 13301 [5]; NCTC13301, A. baumannii NCTC 13301, +[…] PB, preliminary MBC, 2nd experiment, read-out: MBC
  MBC: ≤ 0.03 mg/L
A. baumannii NCTC 13301 [5]; NCTC13301, read-out: MBC +[…] PB
  MBC: 0.06 mg/L (≈ 0.17 µM)
A. baumannii A387 [6]; +0.06 μg/ml PB, 2nd experiment
  MIC without PB/MIC + PB: ≥64
A. baumannii A387 [6]; [25]
  MIC without PB/MIC + PB: ≥64
A. baumannii A387 [6]; A387, A. baumannii A387, +0.06 μg/ml PB, 2nd experiment, read-out: MIC
  MIC: ≤ 0.03 mg/L
A. baumannii A387 [6]; A387, read-out: MIC +0.06 μg/ml PB, A. baumannii A387, +0.06 μg/ml polymyxin B, 1st experiment
  MIC: ≤ 0.03 mg/L
A. baumannii A401 [7]; A baumannii A 401, +0.06 μg/ml polymyxin B, 1st experiment
  MIC +0.06 μg/ml PB: 0.5 mg/L
A. baumannii A401 [7]; A baumannii A 401, ratio, PB 0.06 μg/ml, 1st experiment
  MIC without PB/MIC + PB: 8
A. baumannii A401 [7]; Acinetobacter baumannii, A401, A baumannii A 401, +0.06 μg/ml PB, 2nd experiment, read-out: MIC
  MIC: 1 mg/L (≈ 2.84 µM)
A. baumannii A472 [8]; A. baumannii A472, ratio, PB […], 1st experiment
  MIC without PB/MIC + PB: ≥128
A. baumannii A472 [8]; A472, A. baumannii A472, +[…] PB, 2nd experiment, read-out: MIC
  MIC: ≤ 0.03 mg/L
A. baumannii A472 [8]; A472, read-out: MIC +[…] PB, A. baumannii A472, +[…] polymyxin B, 1st experiment
  MIC: ≤ 0.03 mg/L
A. baumannii J2; +[…] PB, 2nd experiment
  MIC without PB/MIC + PB: ≥128
A. baumannii J2; ratio, PB […], 1st experiment
  MIC without PB/MIC + PB: ≥512
A. baumannii J2; J2, A. baumannii J2, +[…] PB, 2nd experiment, read-out: MIC
  MIC: ≤ 0.03 mg/L
A. baumannii J2; J2, read-out: MIC +[…] PB, A. baumannii J2, +[…] polymyxin B, 1st experiment
  MIC: ≤ 0.03 mg/L
A. baumannii NCTC 13301 [9]; A. baumannii NCTC 13301
  MIC without PB/MIC + PB: ≥512
A. baumannii NCTC 13301 [9]; Acinetobacter baumannii, NCTC13301, A. baumannii NCTC 13301, read-out: MIC
  MIC: ≤ 0.03 mg/L
A. baumannii A387 [10]; A387, A. baumannii A387, +0.06 μg/ml PB, 2nd experiment, read-out: MBC
  MBC: ≤ 0.03 mg/L
A. baumannii A387 [10]; A387, read-out: MBC +0.06 μg/ml PB, A. baumannii A387, +0.06 μg/ml polymyxin B, 1st experiment
  MBC: ≤ 0.03 mg/L
[11]; Acinetobacter spp. H064200250 (OXA51), +[…] PB, 2nd experiment
  MIC without PB/MIC + PB: ≥512
[11]; Acinetobacter spp. H064200250, ratio, PB […], 1st experiment
  MIC without PB/MIC + PB: 32
[11]; Acinetobacter spp. H064200250 (OXA51), +[…] PB, 2nd experiment, read-out: MIC
  MIC: ≤ 0.03 mg/L
[11]; read-out: MIC +[…] PB, Acinetobacter spp. H064200250, +[…] polymyxin B, 1st experiment
  MIC: 0.25 mg/L (≈ 0.709 µM)
A. baumannii A472 [12]; A472, A. baumannii A472, +[…] PB, 2nd experiment, read-out: MBC
  MBC: ≤ 0.03 mg/L
A. baumannii A472 [12]; A472, read-out: MBC +[…] PB, A. baumannii A472, +[…] polymyxin B, 1st experiment
  MBC: ≤ 0.03 mg/L
A. baumannii A489 [13]; A489, A. baumannii A489, +[…] PB, 2nd experiment, read-out: MBC
  MBC: ≤ 0.03 mg/L
A. baumannii A489 [13]; A489, read-out: MBC +[…] PB, A. baumannii A489, +[…] polymyxin B, 1st experiment
  MBC: ≤ 0.03 mg/L
A. baumannii NCTC 13301 [14]; A. baumannii NCTC 13301, ratio, PB […], 1st experiment
  MIC without PB/MIC + PB: 256
A. baumannii NCTC 13301 [14]; Acinetobacter baumannii, NCTC13301, read-out: MIC +[…] PB
  MIC: 0.06 mg/L (≈ 0.17 µM)
A. baumannii A390 [15]; A. baumannii A390
  MIC without PB/MIC + PB: 128
A. baumannii A390 [15]; Acinetobacter baumannii, A390, A. baumannii A390, read-out: MIC
  MIC: 0.125 mg/L (≈ 0.355 µM)
A. baumannii ATCC 19606 [16]; +0.06 μg/ml PB, 2nd experiment
  MIC without PB/MIC + PB: ≥8
A. baumannii ATCC 19606 [16]; [25]
  MIC without PB/MIC + PB: ≥16
A. baumannii ATCC 19606 [16]; ATCC19606, A. baumannii ATCC 19606, +0.06 μg/ml PB, 2nd experiment, read-out: MIC
  MIC: ≤ 0.03 mg/L
A. baumannii ATCC 19606 [16]; ATCC19606, read-out: MIC +0.06 μg/ml PB, A. baumannii ATCC 19606, +0.06 μg/ml polymyxin B, 1st experiment
  MIC: ≤ 0.03 mg/L
A. baumannii A401 [17]; A401, A baumannii A 401, +0.06 μg/ml PB, 2nd experiment, read-out: MBC
  MBC: 0.5 mg/L (≈ 1.42 µM)
A. baumannii A401 [17]; A401, read-out: MBC +0.06 μg/ml PB, A baumannii A 401, +0.06 μg/ml polymyxin B, 1st experiment
  MBC: 0.5 mg/L
A. baumannii A14 [18]; [24]
  MIC: 2 mg/L (≈ 5.68 µM)
  MIC without PB/MIC + PB: 8
A. baumannii A14 [18]; Acinetobacter baumannii, A14, A. baumannii A14, without PB, read-out: MIC
  MIC: 16 mg/L (≈ 45.4 µM)
A. baumannii A473 [19]; A. baumannii A473
  MIC without PB/MIC + PB: 64
A. baumannii A473 [19]; Acinetobacter baumannii, A473, A. baumannii A473, read-out: MIC
  MIC: 0.06 mg/L (≈ 0.17 µM)
[20]; 1st experiment, […] polymyxin B, ATCC 19606, A329, A390 and A473 not taken
  MIC range with PB (0.25x MIC) Oct. 1, 2008 n = 8: ≤0.03 to 1 mg/L
[20]; 2nd experiment, 0.06 μg/ml polymyxin B, all strains except the ATCC strain
  MIC range with PB (0.25x MIC) Oct. 14, 2008 n = 11: ≤0.03 to 2 mg/L
A. baumannii A489 [21]; +[…] PB, 2nd experiment
  MIC without PB/MIC + PB: ≥256
A. baumannii A489 [21]; ratio, PB […], 1st experiment
  MIC without PB/MIC + PB: ≥256
A. baumannii A489 [21]; A489, A. baumannii A489, +[…] PB, 2nd experiment, read-out: MIC
  MIC: ≤ 0.03 mg/L
A. baumannii A489 [21]; A489, read-out: MIC +[…] PB, A. baumannii A489, +[…] polymyxin B, 1st experiment
  MIC: ≤ 0.03 mg/L
A. baumannii A329 [22]; A. baumannii A329
  MIC without PB/MIC + PB: 8
A. baumannii A329 [22]; Acinetobacter baumannii, A329, A. baumannii A329, read-out: MIC
  MIC: 2 mg/L (≈ 5.68 µM)
A. baumannii A329 [23]
  MBC: 2 mg/L (≈ 5.68 µM)
